Measurements taken from a melting point compilation (Tetko et al.; mined from patent text by program, amines drawn as free bases though some values may be those of a salt).

melting point [°C] | Structure (SMILES)
133 | Fc1ccc(OCCCCN2CCC(NC3=Nc4ccccc4CS3)CC2)cc1
191 to 192 | COc1c(C=O)ccc(OCC(=O)O)c1Cc1ccc2c(Cl)cccc2c1
137 to 139 | COC(=O)c1cc(F)c(Cl)nc1Nc1ccc(F)cc1F
148 | Cn1cc(C[C@H]2NC(=O)[C@@H](CCCN)NC2=O)c2ccccc21
97 to 98 | CCOC(=O)c1ccc(/C=C(\C)c2cc3c(cc2OC)C(C)(C)CCC3(C)C)cc1
171 to 172 | O=[N+]([O-])c1ccccc1Nc1ccc(I)cc1
216 to 217 | CNc1nc(Cl)nc2cc(OC)c(OC)cc12
120 | C=C(C)/C=C(\NC(C)=O)C1(c2ccc(Cl)cc2)CCC1
193 to 194 | CS(=O)(=O)N1CCCCc2nc(-c3ccncc3)sc21
180 to 182 | CON=Cc1ccc2c(c1)ncn2-c1cccc(-c2ccncn2)c1
155 to 157 | C=CC[C@H](CC(=O)OC(C)(C)C)C(=O)N[C@H](C(=O)N[C@H](COC)c1ccccc1)C(C)C
231 to 235 | Cc1cc(Br)cnc1CCCCNC1=NS(=O)(=O)c2ccc(Cl)cc21
140 to 161 | Cc1cccc(-c2nnnn2C)c1S(N)(=O)=O
204 to 206 | CC1(CCC(=O)O)CCCc2c1[nH]c1ccccc21 (stereo not given)
156 to 158 | O=C(Nc1ccc(Br)cc1)C(=O)N1CCC(Cc2ccc(F)cc2)CC1
243 to 245 | CC(C)NC(=O)C(C#N)=Cc1cc(O)c(O)c([N+](=O)[O-])c1
95 to 96 | Cc1ccc(C(=O)COc2ccc(F)cc2)cc1
144 to 145 | CN(C)NC(=O)c1c([Si](C)(C)C)ccc(Cl)c1Cl
115 | CCNC(=NC#N)NCCN(CC1CCc2ccccc2O1)C(=O)OC(C)(C)C (stereo not given)
280 | O=C(NC(=O)c1ccc([N+](=O)[O-])cc1Cl)Nc1ccc(Cl)c(Cl)c1
176 to 180 | c1nc(Nc2ccc3[nH]ccc3c2)c2sc(-c3ccc(CNC4CC4)cc3)cc2n1
161 | C=CC(CC(O)C(CC1CCCCC1)NC(=O)C(Cc1c[nH]cn1)NC(=O)C(Cc1ccccc1)NC(=O)OC(C)(C)C)C(C)C (stereo not given)
210 | C=CCn1cc(C(=O)O)c(=O)c2cc(F)c(N3CCOCC3)cc21
105 to 107 | CC(C)(C)OC(=O)NC[C@H]1CC[C@H](COS(C)(=O)=O)CC1

melting point [°C] | Structure (SMILES)
135 to 137 | CC1(C)C=C(C(=O)CCCN2CCC(C(O)(c3ccccc3)c3ccccc3)CC2)C=CC1CCO (stereo not given)
147 to 150 | CC(C)c1c[nH]c(S)n1
294 to 295 | CC1Oc2cc(C3=NNC(=O)CC3)ccc2NC1=O (stereo not given)
112 to 114 | CCN1c2ncc(CCc3ccc4ccccc4c3)cc2C(=O)N(C)c2ccc(F)nc21
79.5 to 80.5 | COC(=O)C1=Cc2cc(Br)cnc2N(CC(C)C)CCC1
73 to 75 | Cc1cccc(-n2nc(C)cc2-c2ccnc(NCc3ccccc3)c2)c1
151 to 152 | CNS(=O)(=O)c1cc(S(=O)(=O)NCc2ccccc2)c(Cl)cc1N
180 to 182 | Cc1cc(=O)n(C(=O)Oc2c(C(=O)c3ccc(Cl)cc3Cl)c(C)nn2C)o1
138 to 141 | COc1ccc(NN=C(Sc2ccc(OC)c(OC)c2)C(C)=O)cc1
198 to 201 | O=S(Cc1ccc(Cl)c(Cl)c1)c1nc2cnccc2[nH]1 (stereo not given)
139 to 141 | O=C(NCc1cccc(C(F)(F)F)c1)c1sc2ccccc2c1O
204 to 205 | O=C(NC1CCCOC1)c1ccc2nonc2c1 (stereo not given)
211 to 214 | C(=C\c1cc(/C=C/c2ccc3cc[nH]c3c2)n[nH]1)/c1ccc(OCc2ccccn2)cc1
56 | c1ccc(C(OC2CCNCC2)c2ccccc2)cc1
140 | CC(C)CCNC(=O)c1ccc2c(c1)N(C(C)CN1CCCC1CO)c1ccccc1S2 (stereo not given)
313 | Cc1sc(S(N)(=O)=O)cc1NC(=O)c1cnn2c(C(F)F)cc(-c3ccc(C(F)(F)F)cc3)nc12
107 to 109 | CCOC(=O)NC(C(=O)OC)C(c1ccccc1)c1ccccc1 (stereo not given)
237 to 239 | O=[N+]([O-])c1cnc(Sc2nnc(O)n2C2CCCCC2)s1
106 to 107 | Cc1c(F)c(N)cc([N+](=O)[O-])c1F
199 | Cc1cc2ncnc(N3CCc4ccc(Cl)cc43)c2cc1C
54 to 55 | O=C(OC1CCN(Cc2cccc([N+](=O)[O-])c2)CC1)c1ccccc1
167 to 170 | CCOc1cc2c(cc1OC)C(c1ccc(-c3nnn(CC)n3)cc1)=N[C@H]1CCCC[C@@H]21 (racemic)
71 to 73 | CC(C)(C)OC(=O)CC1CC(C=O)OC(C)(C)O1 (stereo not given)
150 to 152 | CC(C)c1ccc(S(=O)(=O)c2ccccc2)cc1S(=O)(=O)NC1CCN(C(=O)c2ccc(C(C)(C)C)cc2)CC1

melting point [°C] | Structure (SMILES)
159 | Nc1nc(Cl)cc(CF)n1
127 to 129 | COc1cccc(C(=O)CCCN2CCC(O)(c3ccc(Cl)cc3)CC2)c1
211 to 213 | COc1ccccc1C1C(C(=O)c2ccc(C)cc2)=C(O)C(=O)N1c1ccc(C)nn1 (stereo not given)
119 to 120 | COc1nc(SCc2ccc(F)cc2)cnc1NS(=O)(=O)c1cccc(Cl)c1Cl
210 to 212 | CN(Cc1cc(C(F)(F)F)cc(C(F)(F)F)c1)C(=O)c1c(-c2ccc(F)cc2)c2ccc(=O)n(C)c2c(=O)n1C
157 to 161 | CCOC(=O)C1=C(C(F)(F)F)Nc2n[nH]cc2C1c1cccs1 (stereo not given)
92 to 94 | CC(=O)OC(c1cscc1S(N)(=O)=O)C(C)F (stereo not given)
169 to 171 | CS(=O)(=O)c1cc(C=O)cc(O)c1O
169 to 170 | O=C(Nc1ccc(-n2nc(C(F)(F)F)cc2C(F)(F)F)cc1)c1cc(F)cc(F)c1F
185 to 187 | N#Cc1c(N2CCc3ccccc3CC2)nc(CCOC2CCCCO2)[nH]c1=O (stereo not given)
83 to 84 | COC(=O)c1cnoc1-c1ccc(Cl)cc1Cl
154 to 156 | CCOc1cc(C(CS(C)(=O)=O)N2C(=O)c3cccc(NC(=O)COCc4ccccc4)c3C2=O)ccc1OC (stereo not given)
234 to 236 | O=[N+]([O-])c1cc(C(F)(F)F)ccc1Sc1nc(-c2ccccc2)c(-c2ccccc2)[nH]1
150 to 151 | O=C(O)C1(C(=O)O)CC(C2CCC2)C1
157 to 158 | CCCCCCCCCCC/C=C\c1c[nH]c(C(=O)O)c1
104 to 106 | CCOCc1cc(N2C(=O)C3=C(CCCC3)C2=O)c(F)cc1Br
291 to 293 | O=C(Nc1ccccc1)NN1CCc2[nH]c(=O)n3nc(-c4ccccc4F)nc3c2C1
235 to 240 | CC1=N/C(=C\c2c[nH]c3ncccc23)C(=O)N1CCN1CCOCC1
126 to 127 | CN1CCCC(n2nc(-c3c(-c4ccccc4)nn4ccccc34)ccc2=O)C1 (stereo not given)
155 to 172 | CC1CC2C3CCC4=CC(=O)C=CC4(C)C3=CCC2(C)C1C(=O)CN1CCN(c2cc(N3CCCC3)nc(NC34CC5CC(CC(C5)C3)C4)n2)CC1 (stereo not given)
178 | CC(=O)Nc1cccc(-n2nc(C(C)C)c(=O)n(Cc3ccc(Cl)cc3)c2=O)c1
140 to 141 | Cc1oc(-c2ccccc2)nc1COc1ccc(COc2ccc(OCc3ccccc3)cc2CC(=O)O)cc1
109 to 115 | COCCOc1cc2ncnc(NC3=CC(=O)C(Oc4ccc(-n5ccnc5)cc4)=CC3=O)c2cc1OCCOC
196 to 197 | CCOC(=O)c1[nH]c2ccc(Cl)cc2c1Cc1ccccc1

melting point [°C] | Structure (SMILES)
138 | Cc1nn(C)c(F)c1C(=O)Nc1cccc2c1CCC2(C)C
98 to 106 | Clc1ccn(-c2cccnc2)n1
141 to 142 | COc1ccc(N=C(NC(=S)NCCO)c2ccccc2)cc1
280 | O=C(O)CSc1nc(-n2cc(C3c4ccccc4C=Cc4ccccc43)c(=S)[nH]c2=O)ncc1-c1ccc(CC(=O)O)cc1
121 to 123 | CC[C@@H](NC(=O)N1CC(=O)NC[C@@H](Cc2cc(Cl)ccc2OC)C1=O)c1cccc(C(=O)O)c1
52 to 53 | COC(=O)c1cc([N+](=O)[O-])ccc1F
127 to 128 | CCc1cc(SCc2cccc3oc(-c4ccc(C(F)(F)F)cc4)nc23)ccc1OCC(=O)O
145 to 148 | CCN(C)c1nc(-c2cc(OC)cc(OC)c2)nc2sc(C#N)c(C)c12
34 to 35 | CC1(C(=O)n2ccnc2)CC1
156 to 161 | CC(C)(C)c1nc(C(=O)c2cc[nH]n2)nc(C(C)(C)C)c1O
157 to 159 | O=C(Nc1cccnc1NCC(O)c1ccccc1)c1ccc(Cl)cc1 (stereo not given)
86 to 87 | COCCCc1nc(C(F)F)ccc1C(=O)O
71 to 75 | COc1ccc2sc(SCc3c(F)c(F)c(F)c(F)c3F)nc2c1
224 to 226 | CC(C)(C)n1cnc2c1c1ccccc1n1nnnc21
74 to 77 | CSC(=NC(=O)N(C)C)N(C)C(=O)Nc1ccccc1
130 to 132 | CSc1nc(=O)cc(N)n1-c1ccc(C)cc1
51.9 to 53.2 | C=CC1=C(C(=O)OCC)C(C(F)(F)F)Oc2ccc(Cl)cc21 (stereo not given)
219 | NC(=O)c1cn2c(nc1=O)CCCCC2
231 to 233 | Cc1ccc2nc(-c3ccc(C#N)cc3)c(CNC(=O)CC(C)C)n2c1
82 to 82.5 | COc1cc(C=O)c2c(c1OC)OCC=C2
102 to 105 | Cc1ccc2cc(NC(=O)c3cccc(SCc4cnccn4)c3)ccc2n1
74.5 to 79.5 | CC(C)SC1=C(O)CC(C)(C)CC1=O
159 to 160 | CCOC(=O)c1cn(C(C)(C)C)c2nc(SCC)c(F)cc2c1=O
122 to 124 | Cc1ccc2c(c1)C(CCCCN1CCN(c3cccc(Cl)c3)CC1)C(=O)N2 (stereo not given)

Structure (SMILES) | melting point [°C]
Cc1cccc(-n2c(CF)nc3ccc(N)cc3c2=O)c1C | 189 to 192
CC(c1ccccc1)n1cncc1C(=O)O (single isomer, unassigned; (-)) | 155
Cc1noc(-c2ncn3c2CN(C)C(=O)c2cc(F)ccc2-3)n1 | 244 to 245
CNC(=N[N+](=O)[O-])NCc1cnc(Br)s1 | 170
